Test system: cats
Test: Study 3: 24-hour behavior of the most aggressive intact male cat pairs, CON litter versus RP litter
Type: in vivo
Method: During the studies, cat behavior was captured on video for the duration of the 24- or 48-hour period depending on the specific study. Red lights were used at night to allow for continuous observation. A scan sampling method was used to record cat behaviors each 5 minutes. The recorded videos were subsequently reviewed and analyzed in each 5-minute scan sample, with tape playing 30 frames per second. At each 5-minute time point, each cat was categorized as anxious or relaxed. Aggression or litter box usage occurred between 5-minute periods were also noted. Because each scan sample is of 5-minute period, a total of 24 observations for each individual behavior are possible for each 2 hours. The instances of an individual behavior (An; n=1, 2, 3, . . . 24) in each 5-minute period were totaled for instances in each 2 hours (Bm=ΣAn, n=1, 2, 3, . . . 24; m=1, 2, 3, . . . 12) over 24 hours. The behavioral score for each 2-hour period is ΣAn/24 (n=1, 2, 3, . . . , 24). A behavioral score for a 24-hour period is ΣBm/12 (m=1, 2, 3, . . . 12). Among all behavior assessed, aggression, in-litter-box and anxiety were scored as yes or no during each 5 minutes (An=1 or 0; n=1, 2, 3, . . . 24). In addition, anxiety was measured as a percentage of the total time that the cat was experiencing anxiety. As such the anxiety related behavioral score for a 24-hour period is 0.347×ΣBm (%) (Bm=ΣAn(%), n=1, 2, 3, . . . 24; m=1, 2, 3, . . . 12), which reflects the percentage of time over 24 hours that the cats are experiencing anxiety. Moreover, when ranking cat pairs based on their level of aggression, the sum of the aggression scores of the individual cats in the pair was used to rank the cat pairs. Behavior data (behavioral scores) were further analyzed by Least Squares Analysis of variance using SAS (2011, SAS Inst., Inc., Cary, N.C.) software and the p-diff general linear model procedures to assess treatment differences within each time period. This statistical model included effects of treatment (TRT), cat-pair within treatment (TRT*CAT), time (HR), treatment by time (TRT*HR) and residual error (SE; used to test remaining effects). The most aggressive eight pairs of intact male cats from study 2 (Table, the pairs ranked 1 and 2-9) were selected for this 24-hour study, which was designed to assess if and how 2-methylbut-2-enal containing cat litter affects the multiple cats placed in one single room. Between studies 2 and 3, cat pairs had been separated for at least 12 weeks. Control (CON) litter and rabbit pheromone (RP) litter were similarly prepared as illustrated in Study 2. Each pair of cats was placed in a kennel containing one food dish, one water dish, and one litter box. Food and water was available ad libitum during the study. […] Side fences were chain linked. A total of 4 kennels were placed in one single room, and two rooms were utilized for eight pairs of cats. Cat behaviors were captured on video for the duration of the 24-hour period. Red lights were used at night to allow for continuous observation. The study schedule was as follows: • (1) 0 hour—Add 3 lb. aliquot of CON litter to a clean litter box and weigh the litter box; place a CON litter box in each of the 4 kennels in Room One. Before placing a designated cat pair in each of the kennels, weigh the cats. Start the video taping. • (2) 0 hour—Add 3 lb. aliquot of RP litter to a clean litter box and weigh; place RP litter boxes in 4 kennels in a separate Room Two; weigh cats; place designated pairs in kennels; and start the video taping. • (3) 24-hour—Remove and weigh all litter boxes; weigh all cats. Video records were obtained and reviewed for summary and analyses. At the 24-hour point of time, it was noted if any soiling had occurred outside of the litter box. Any social behavioral problems of the cats were also manually recorded, despite that video records provided a much more precise record of cat behaviors. Cat behavior of each pair was captured on video for the duration of the 24-hour period. […]

Structure (SMILES): C/C=C(\C)C=O [RP, 2-methylbut-2-enal]
- aggression away from litter box, % of the observations (0-2 hour period, CON litter 25%, P<0.01): 5-6%
- aggression near litter box, % of the observations (0-2 hour period, CON litter more than 40%, P<0.01): 2-3%
- aggression away from litter box, % of the observations (2-4 hour period, CON litter 23-24%, P<0.01): 4%
- lying/sitting - touching versus CON litter (6-8 hour period, P=0.07): tendency to sit or lie in contact
- anxiety versus CON litter (8-10 hour period, P=0.06): tendency to be more anxious
- litter box use versus CON litter (8-10 hour period, P=0.10): tended to use the litter box more often
- anxiety versus CON litter (10-12 hour period, P<0.01): significantly more anxious
- neutral social interaction versus CON litter (10-12 hour period, P<0.01): significantly more neutral (non-aggressive) social interactions
- litter box use versus CON litter (12-14 hour period, P<0.01): Cats experiencing CON litter used the litter box significantly more
- anxiety versus CON litter (14-16 hour period, P=0.01): significantly more anxious
- anxiety versus CON litter (16-18 hour period, P=0.03): significantly more anxious
- lying/sitting - touching versus CON litter (16-18 hour period, P=0.05): tended to sit or lie in contact less
- anxiety versus CON litter (18-20 hour period, P=0.03): significantly more anxious
- litter box use versus CON litter (18-20 hour period, P=0.03): Cats experiencing CON litter used the litter box significantly more
- lying/sitting - touching versus CON litter (20-22 hour period, P=0.01): significantly higher
- lying/sitting - touching versus CON litter (22-24 hr period, P=0.04): tended to sit or lie in contact less
- duration of aggression control (RP in the litter around 0.0004% to 0.0006% (w/w)): 6 to 8 h
- Behavior score: Head in food/H2O dish (RP litter (3% (w/w) beads with 0.02% (w/w) 2-methylbut-2-enal), 24 hours, 4 cat pairs, CON 0.85, TRT P-Value 0.16): 0.57
- Behavior score: Grooming other (RP litter, 24 hours, 4 cat pairs, CON 0.03, TRT P-Value 0.36): 0.00
- Behavior score: Neutral social interaction (RP litter, 24 hours, 4 cat pairs, CON 0.10, TRT P-Value 0.82): 0.14
- Behavior score: In litter box - using (RP litter, 24 hours, 4 cat pairs, CON 0.31, TRT P-Value 0.23): 0.20
- Behavior score: Grooming self (RP litter, 24 hours, 4 cat pairs, CON 0.56, TRT P-Value 0.90): 0.52
- Behavior score: Lying/sitting - touching (RP litter, 24 hours, 4 cat pairs, CON 0.73, TRT P-Value 0.92): 0.64
- Behavior score: Play (RP litter, 24 hours, 4 cat pairs, CON 0.84, TRT P-Value 0.89): 0.92
- Behavior score: Sleeping (RP litter, 24 hours, 4 cat pairs, CON 0.95, TRT P-Value 0.59): 0.63
- Behavior score: In litter box - not using (RP litter, 24 hours, 4 cat pairs, CON 1.63, TRT P-Value 0.74): 2.34
- Behavior score: Aggression (RP litter, 24 hours, 4 cat pairs, CON 3.55, TRT P-Value 0.37): 2.01
- Behavior score: Locomotion (RP litter, 24 hours, 4 cat pairs, CON 5.50, TRT P-Value 0.52): 4.34
- Behavior score: Lying/sitting - not touching (RP litter, 24 hours, 4 cat pairs, CON 14.98, TRT P-Value 0.79): 15.53
- Behavior score: Anxiety (%) (RP litter, 24 hours, 4 cat pairs, CON 17.00, TRT P-Value 0.56): 25.00%
- weight added to litter box (RP litter, CON cats 0.15 kg, SE=0.02 kg, change not significant, litter spilled): 0.07 kg/day
- overall RP treatment effect on behaviors over the full 24 hours (RP versus CON litter, all behaviors of Table 10): None of the behaviors evaluated over the full 24 hours were significantly changed
- anxiety versus CON litter (first 2 hour period, P=0.04): significantly less anxious
- aggression patterns versus CON litter (first 6 hours after cats were placed together, P<0.01): significantly lower

Source: patent publication US10806121B2, “Animal litter containing a pheromone composition” (Sergeant's Pet Care Products, LLC, priority 2014, dated 2020)
